# US7998978B2 (Pfizer Inc., priority 2006, dated 2011)
# Molecular target: T1, JNK1α1 (Homo sapiens, UniProt P45983)
# T1 construct: catalytic domain containing amino acids 1-364 and N-terminal hexahistidine tag; hexahistidine (His6) (N); made in house; host or cells: E. coli BL21 (DE3)
# Assay: Coupled spectrophotometric (PK/LDH) JNK1α1 assay: % inhibition and Ki determination
# Type: biochemical
# Conditions: @1 uM; read-out: % Inhibition JNK-1
# Procedure, shortened: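 Initial rates were taken from the absorbance decrease at 340 nm at 30° C. Ki was fitted with a tight-binding model over 11 concentrations (top 100 μM); single-point inhibition was tested at 1 or 10 μM.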
# T1 sequence (P45983 1-364): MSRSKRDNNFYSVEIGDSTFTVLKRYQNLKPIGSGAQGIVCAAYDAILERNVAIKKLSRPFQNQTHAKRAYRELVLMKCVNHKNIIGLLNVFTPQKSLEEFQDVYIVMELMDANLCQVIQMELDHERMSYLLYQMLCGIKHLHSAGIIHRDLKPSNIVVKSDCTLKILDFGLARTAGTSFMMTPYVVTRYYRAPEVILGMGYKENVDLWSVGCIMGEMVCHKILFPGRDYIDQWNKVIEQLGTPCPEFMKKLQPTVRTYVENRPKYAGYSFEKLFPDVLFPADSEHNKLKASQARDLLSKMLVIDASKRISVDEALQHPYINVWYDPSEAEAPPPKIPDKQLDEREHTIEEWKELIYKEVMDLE
row,SMILES,inhibition at 1 µM [%]
1,"O=C(NCc1ccccn1)c1cccc2cnc(N[C@H]3CC[C@H](O)CC3)nc12 [Example 468, 2-[(trans-4-hydroxycyclohexyl)amino]-N-(pyridin-2-ylmethyl)quinazoline-8-carboxamide]",15
2,"O=C(NCCc1ccccn1)c1cccc2cnc(N[C@H]3CC[C@H](O)CC3)nc12 [Example 469, 2-[(trans-4-hydroxycyclohexyl)amino]-N-(2-pyridin-2-ylethyl)quinazoline-8-carboxamide]",10
3,"O=C(N[C@H](CO)c1ccccc1)c1cccc2cnc(N[C@H]3CC[C@H](O)CC3)nc12 [Example 470, 2-[(trans-4-hydroxycyclohexyl)amino]-N-[(1S)-2-hydroxy-1-phenylethyl]quinazoline-8-carboxamide]",27
4,"O=C(N[C@@H](CO)c1ccccc1)c1cccc2cnc(N[C@H]3CC[C@H](O)CC3)nc12 [Example 471, 2-[(trans-4-hydroxycyclohexyl)amino]-N-[(1R)-2-hydroxy-1-phenylethyl]quinazoline-8-carboxamide]",19
5,"C[C@@H](NC(=O)c1cccc2cnc(N[C@H]3CC[C@H](O)CC3)nc12)[C@@H](O)c1ccccc1 [Example 472, 2-[(trans-4-hydroxycyclohexyl)amino]-N-[(1R,2S)-2-hydroxy-1-methyl-2-phenylethyl]quinazoline-8-carboxamide]",25
6,"O=C(NCc1ccncc1)c1cccc2cnc(N[C@H]3CC[C@H](O)CC3)nc12 [Example 473, 2-[(trans-4-hydroxycyclohexyl)amino]-N-(pyridin-4-ylmethyl)quinazoline-8-carboxamide]",34
7,"O=C(NC[C@@H](O)c1ccccc1)c1cccc2cnc(N[C@H]3CC[C@H](O)CC3)nc12 [Example 474, 2-[(trans-4-hydroxycyclohexyl)amino]-N-[(2S)-2-hydroxy-2-phenylethyl]quinazoline-8-carboxamide]",37
8,"Cc1cccc(CC(C)NC(=O)c2cccc3cnc(N[C@H]4CC[C@H](O)CC4)nc23)n1 (stereo partly drawn) [Example 475, 2-[(trans-4-hydroxycyclohexyl)amino]-N-[1-methyl-2-(6-methylpyridin-2-yl)ethyl]quinazoline-8-carboxamide]",11
9,"O=C(NCCN1CCNC1=O)c1cccc2cnc(N[C@H]3CC[C@H](O)CC3)nc12 [Example 476, 2-[(trans-4-hydroxycyclohexyl)amino]-N-[2-(2-oxoimidazolidin-1-yl)ethyl]quinazoline-8-carboxamide]",10
10,"O=C(NCc1ccc[nH]c1=O)c1cccc2cnc(N[C@H]3CC[C@H](O)CC3)nc12 [Example 477, 2-[(trans-4-hydroxycyclohexyl)amino]-N-[(2-oxo-1,2-dihydropyridin-3-yl)methyl]quinazoline-8-carboxamide]",14
11,"Cc1nnc(CCNC(=O)c2cccc3cnc(N[C@H]4CC[C@H](O)CC4)nc23)[nH]1 [Example 478, 2-[(trans-4-hydroxycyclohexyl)amino]-N-[2-(5-methyl-4H-1,2,4-triazol-3-yl)ethyl]quinazoline-8-carboxamide]",12
12,"Cc1c(C(C)NC(=O)c2cccc3cnc(N[C@H]4CC[C@H](O)CC4)nc23)cnn1C (stereo partly drawn) [Example 479, N-[1-(1,5-dimethyl-1H-pyrazol-4-yl)ethyl]-2-[(trans-4-hydroxycyclohexyl)amino]quinazoline-8-carboxamide]",13

# Same assay, conditions: JNK-1
row,SMILES,Ki [nM]
1,"O=C(NCC(O)c1ccccc1)c1cccc2cnc(N[C@H]3CC[C@H](O)CC3)nc12 (stereo partly drawn) [Example 443, 2-[(trans-4-hydroxycyclohexyl)amino]-N-(2-hydroxy-2-phenylethyl)quinazoline-8-carboxamide]",104
2,"O=C(NCC1(O)CCOc2ccccc21)c1cccc2cnc(N[C@H]3CC[C@H](O)CC3)nc12 (stereo partly drawn) [Example 444, 2-[(trans-4-hydroxycyclohexyl)amino]-N-[(4-hydroxy-3,4-dihydro-2H-chromen-4-yl)methyl]quinazoline-8-carboxamide]",106
3,"CC(C)[C@@H](CO)NC(=O)c1cccc2cnc(N[C@H]3CC[C@H](O)CC3)nc12 [Example 445, 2-[(trans-4-hydroxycyclohexyl)amino]-N-[(1S)-1-(hydroxymethyl)-2-methylpropyl]quinazoline-8-carboxamide]",110
4,"O=C(N[C@@H]1CCCC[C@@H]1CO)c1cccc2cnc(N[C@H]3CC[C@H](O)CC3)nc12 [Example 446, 2-[(trans-4-hydroxycyclohexyl)amino]-N-[(1R,2S)-2-(hydroxymethyl)cyclohexyl]quinazoline-8-carboxamide]",112
5,"O=C(NC1CC1)c1cccc2cnc(N[C@H]3CC[C@H](O)CC3)nc12 [Example 447, N-cyclopropyl-2-[(trans-4-hydroxycyclohexyl)amino]quinazoline-8-carboxamide]",119
6,"O=C(NC1CCN(c2cccnn2)CC1)c1cccc2cnc(N[C@H]3CC[C@H](O)CC3)nc12 [Example 449, 2-[(trans-4-hydroxycyclohexyl)amino]-N-(1-pyridazin-3-ylpiperidin-4-yl)quinazoline-8-carboxamide]",138
7,"CC(C)C(CO)NC(=O)c1cccc2cnc(N[C@H]3CC[C@H](O)CC3)nc12 (stereo partly drawn) [Example 450, 2-[(trans-4-hydroxycyclohexyl)amino]-N-[1-(hydroxymethyl)-2-methylpropyl]quinazoline-8-carboxamide]",144
8,"O=C(NCCCO)c1cccc2cnc(N[C@H]3CC[C@H](O)CC3)nc12 [Example 451, 2-[(trans-4-hydroxycyclohexyl)amino]-N-(3-hydroxypropyl)quinazoline-8-carboxamide]",166
9,"Cc1n[nH]c(C)c1CNC(=O)c1cccc2cnc(N[C@H]3CC[C@H](O)CC3)nc12 [Example 452, N-[(3,5-dimethyl-1H-pyrazol-4-yl)methyl]-2-[(trans-4-hydroxycyclohexyl)amino]quinazoline-8-carboxamide]",166
10,CC1(CNC(=O)c2cccc3cnc(N[C@H]4CC[C@H](O)CC4)nc23)COC1 [Example 453],170
11,"O=C(NC1(CO)CCCC1)c1cccc2cnc(N[C@H]3CC[C@H](O)CC3)nc12 [Example 454, 2-[(trans-4-hydroxycyclohexyl)amino]-N-[1-(hydroxymethyl)cyclopentyl]quinazoline-8-carboxamide]",221
12,"O=C(NC1(c2ccncc2)CC1)c1cccc2cnc(N[C@H]3CC[C@H](O)CC3)nc12 [Example 455, 2-[(trans-4-hydroxycyclohexyl)amino]-N-(1-pyridin-4-ylcyclopropyl)quinazoline-8-carboxamide]",235
13,"O=C(NCC(O)c1ccc(F)c(F)c1)c1cccc2cnc(N[C@H]3CC[C@H](O)CC3)nc12 (stereo partly drawn) [Example 456, N-[2-(3,4-difluorophenyl)-2-hydroxyethyl]-2-[(trans-4-hydroxycyclohexyl)amino]quinazoline-8-carboxamide]",254
14,"O=C(N[C@H]1CC[C@H](CO)CC1)c1cccc2cnc(N[C@H]3CC[C@H](O)CC3)nc12 [Example 457, 2-[(trans-4-hydroxycyclohexyl)amino]-N-[trans-4-(hydroxymethyl)cyclohexyl]quinazoline-8-carboxamide]",275
15,"CC[C@H](CO)NC(=O)c1cccc2cnc(N[C@H]3CC[C@H](O)CC3)nc12 [Example 458, 2-[(trans-4-hydroxycyclohexyl)amino]-N-[(1R)-1-(hydroxymethyl)propyl]quinazoline-8-carboxamide]",374
16,"O=C(N[C@@H]1Cc2ccccc2[C@H]1O)c1cccc2cnc(N[C@H]3CC[C@H](O)CC3)nc12 [Example 459, 2-[(trans-4-hydroxycyclohexyl)amino]-N-[(1R,2R)-1-hydroxy-2,3-dihydro-1H-inden-2-yl]quinazoline-8-carboxamide]",399
17,"O=C(NCC1(O)CCCC1)c1cccc2cnc(N[C@H]3CC[C@H](O)CC3)nc12 [Example 460, 2-[(trans-4-hydroxycyclohexyl)amino]-N-[(1-hydroxycyclopentyl)methyl]quinazoline-8-carboxamide]",400
18,"CCCNC(=O)c1cccc2cnc(N[C@H]3CC[C@H](O)CC3)nc12 [Example 461, 2-[(trans-4-hydroxycyclohexyl)amino]-N-propylquinazoline-8-carboxamide]",451
19,"O=C(NC1(c2ccccn2)CC1)c1cccc2cnc(N[C@H]3CC[C@H](O)CC3)nc12 [Example 462, 2-[(trans-4-hydroxycyclohexyl)amino]-N-(1-pyridin-2-ylcyclopropyl)quinazoline-8-carboxamide]",471
20,"O=C(N[C@H]1c2ccccc2C[C@H]1O)c1cccc2cnc(N[C@H]3CC[C@H](O)CC3)nc12 [Example 463, 2-[(trans-4-hydroxycyclohexyl)amino]-N-[(1S,2R)-2-hydroxy-2,3-dihydro-1H-inden-1-yl]quinazoline-8-carboxamide]",486
21,"O=C(NC1(c2cccnc2)CC1)c1cccc2cnc(N[C@H]3CC[C@H](O)CC3)nc12 [Example 464, 2-[(trans-4-hydroxycyclohexyl)amino]-N-(1-pyridin-3-ylcyclopropyl)quinazoline-8-carboxamide]",685
22,"Cn1cncc1CNC(=O)c1cccc2cnc(N[C@H]3CC[C@H](O)CC3)nc12 [Example 465, 2-[(trans-4-hydroxycyclohexyl)amino]-N-[(1-methyl-1H-imidazol-5-yl)methyl]quinazoline-8-carboxamide]",782
23,"O=C(N[C@H]1CC[C@@H](CO)CC1)c1cccc2cnc(N[C@H]3CC[C@H](O)CC3)nc12 [Example 466, 2-[(trans-4-hydroxycyclohexyl)amino]-N-[cis-4-(hydroxymethyl)cyclohexyl]quinazoline-8-carboxamide]",962
24,"CNC(=O)N1CCC(NC(=O)c2cccc3cnc(N[C@H]4CC[C@H](O)CC4)nc23)CC1 [Example 467, 2-[(trans-4-hydroxycyclohexyl)amino]-N-{1-[(methylamino)carbonyl]piperidin-4-yl}quinazoline-8-carboxamide]",2050
